Key:
potato plants [1] = assay: Desiccant action on potato leaf, field plots, visual evaluation 15 DAA (Example 3); format: in vivo; settings: for Desiccation (%): potato leaf, 15 DAA; for effect in combination with the herbicides tested (synergistic / antagonist): potato desiccation, Colby analysis
Excerpt: The desiccant was applied by spraying.

potato plants [2] = assay: Desiccant action on potato leaf of carfentrazone-ethyl with polyferulates of different molecular weight (Example 4); settings: application rate 25 g a.i. ha^−1, 15 DAA
Lemna minor = assay: Herbicide activity on Lemna minor in vitro, fresh weight reduction (Example 5); format: in vivo; settings: all chemicals at 10 mg/L; 7-day exposure
Experimental: The experiment was carried out in Lemna minor growing in vitro conditions. Lemna minor (duckweed) was bought in the local market. A stock culture was maintained on modified Hoagland medium in a controlled environment. The pH of the medium was adjusted to 6.0, and the plants were grown under static conditions in a plant growth chamber at 25±2° C., light/dark regime of 16 h/8 h.
For the experiments, fronds free from any visible chlorosis were taken from the stock cultures and exposed to the appropriate treatment. For each treatment, we used six repetitions with three fronds per repetition as the initial frond number. Individual fronds were transferred to a 12 well multiplate containing Hoagland medium (control), Hoagland medium containing polyferulates, herbicides or the combination as shown in Table 8. All chemicals were evaluated at the same concentration (10 mg/L). The multiplate was covered with a transparent cover to prevent evaporation. The herbicide activity was evaluated as fresh weight reduction compared to untreated plants after one week of incubation in the described conditions.

Echinochloa colona = assay: Herbicide activity on Echinochloa colona, visual evaluation 20 DAT (Example 6); format: in vivo
Excerpt: Echinochloa colona is a cosmopolitan weed common in crops (mainly rice, maize and vegetables), gardens, roadsides, disturbed sites, waste areas and pastures. It also grows along waterways, on the margins of lakes and ponds, in swamps and wetlands, and in other damp habitats. It has the potential to invade natural areas and completely outcompete native vegetation. This weed pose a significant threat to rice productivity globally and are usually reported as noxious weeds in several economically important crops around the world. E. colona has vigorous growth traits and high seed production since each E. colona plant can produce up to 42,000 seeds. The experiment in Echinochloa colona plants was carried out in independent pots and in four replications. […] The products were applied by spraying. The herbicide activity was visually evaluated 20 days after treatment.

potato plants [3] = assay: Greenhouse potato trial: fresh weight reduction and quantum yield of PSII (Example 7); format: in vivo; settings: for Fresh weight of the plants (% of control): 14 DAA; for Quantum yield of PSII: three days after foliar application
Experimental: The trial was carried out in a greenhouse in potato plants. The desiccant (pyraflufen-ethyl, a Protoporphyrinogen Oxidase (PPO) Inhibitor) was applied by spraying at different percentage of the recommended doses alone or combined with polyferulates. The effect of the herbicide was first evaluated by measurements of the photosynthetic capacity of treated leaves using the QY (quantum yield) three days after foliar application and the final desiccation efficiency was evaluated 14 days after treatment. The herbicide activity (desiccation efficiency) was evaluated as fresh weight reduction respect to untreated plants (control) an expressed in percentage.

potato plants [4] = assay: Desiccant action on potato leaf in function of polyferulate application timing (Example 8); format: in vivo; settings: application rate 10.6 g a.i. ha^−1; 15 days after treatment
Excerpt: Polyferulates were applied the day before the desiccant spraying (D−1), in tank mix combination with the desiccant (D−0) or the day after the desiccant spraying (D+1). […] The desiccant was applied by spraying.

[5] = test system: Tomato (Solanum lycopersicum) plants; assay: Herbicide uptake into plant foliage: distribution of pyraflufen-ethyl between leaf fractions (Example 9); format: in vivo; settings: tomato leaves
Experimental: Tomato (Solanum lycopersicum) plants were sprayed with a diluted solution of pyraflufen-ethyl herbicide or a diluted solution of pyraflufen-ethyl herbicide combined with polyferulates. Samples of treated leaves were taken at 2 h and 24 h after treatment. An extraction procedure following successive steps was used to describe the distribution of pyraflufen-ethyl residues on and in plant leaves. Four fractions of pesticide residues were recovered: (i) the fraction of pesticide susceptible to wash-off by rain that was assumed to correspond to the water-washable fraction, (ii) the fraction of pesticide having adsorbed on the leaf surface that was assumed to correspond to the ethanol-extracted fraction, (iii) the fraction of pesticide having penetrated into the cuticle that was assumed to correspond to the hexane-extracted fraction, and (iv) the fraction of pesticide having penetrated into the foliar tissues that was assumed to correspond to the bound residues fraction.

[6] = pyraflufen-ethyl at 25% of recommended dose
[7] = pyraflufen-ethyl at 50% of recommended dose
[8] = pyraflufen-ethyl at 75% of recommended dose
[9] = pyraflufen-ethyl at 100% of recommended dose

CCOC(=O)C(Cl)Cc1cc(-n2nc(C)n(C(F)F)c2=O)c(F)cc1Cl (centres unmarked) [Carfentrazone-ethyl]
Desiccation (%) (potato plants [1]; application rate 30): 73% | Desiccation (%) (potato plants [1]; application rate 60): 96% | Desiccation (%) (potato plants [2]): 56%

CCOC1Oc2ccc(OS(C)(=O)=O)cc2C1(C)C (centres unmarked) [Ethofumesate]
Herbicide activity (fresh weight reduction compared to untreated plants) (Lemna minor): 0

COc1cc(/C=C/C(=O)O)ccc1O [Ferulic acid, (2E)-3-(4-hydroxy-3methoxyphenyl)prop-2-enoic acid]
Desiccation (%) (potato plants [1]; application rate 12): 3% | effect in combination with the herbicides tested (synergistic / antagonist) (potato plants [1]): antagonist

O=C(O)CNCP(=O)(O)O [Glyphosate]
Herbicide activity (Echinochloa colona; application rate 550 g a.i. ha^−1): 59%

CCCCCCCCC(=O)O [Pelargonic acid]
Desiccation (%) (potato plants [1]; application rate 2720): 51% | Desiccation (%) (potato plants [1]; application rate 5440): 68% | Desiccation (%) (potato plants [1]; application rate 10880): 95%

COc1cnc(OC)n2nc(NS(=O)(=O)c3c(OCC(F)F)cccc3C(F)(F)F)nc12 [Penoxsulam]
Herbicide activity (Echinochloa colona; application rate 30 g a.i. ha^−1): 16%

COC(=O)Nc1cccc(OC(=O)Nc2cccc(C)c2)c1 [Phenmedipham]
Herbicide activity (fresh weight reduction compared to untreated plants) (Lemna minor): 3

CCCC(=NOCC(C)Oc1ccc(Cl)cc1)C1=C(O)CC(C2CCCSC2)CC1=O (centres unmarked) [Profoxydim]
Herbicide activity (fresh weight reduction compared to untreated plants) (Lemna minor): 45 | Herbicide activity (Echinochloa colona; application rate 110 g a.i. ha^−1): 34%

CCOC(=O)COc1cc(-c2nn(C)c(OC(F)F)c2Cl)c(F)cc1Cl [Pyraflufen-ethyl]
Desiccation (%) (potato plants [1]; application rate 5.3): 60% | Desiccation (%) (potato plants [1]; application rate 10.6): 78% | Desiccation (%) (potato plants [1]; application rate 15.9): 85% | Desiccation (%) (potato plants [1]; application rate 21.2): 90% | Fresh weight of the plants (% of control) (potato plants [3]; [6]): 39 % of control | Quantum yield of PSII (potato plants [3]; [6]): 0.6 | Fresh weight of the plants (% of control) (potato plants [3]; [7]): 22 % of control | Quantum yield of PSII (potato plants [3]; [7]): 0.461 | Fresh weight of the plants (% of control) (potato plants [3]; [8]): 14 % of control | Quantum yield of PSII (potato plants [3]; [8]): 0.385 | Fresh weight of the plants (% of control) (potato plants [3]; [9]): 10 % of control | Quantum yield of PSII (potato plants [3]; [9]): 0.335 | Desiccation (%) (potato plants [4]): 79% | pyraflufen-ethyl in Bound residues fraction ([5]; 2 h after treatment): 0.16 μg/g of fresh weight leaves | pyraflufen-ethyl in Ethanol-extracted fraction ([5]; 2 h after treatment): 1.88 μg/g of fresh weight leaves | pyraflufen-ethyl in Hexane-extracted fraction ([5]; 2 h after treatment): 0.51 μg/g of fresh weight leaves | pyraflufen-ethyl in Water-washable fraction ([5]; 2 h after treatment): 3.34 μg/g of fresh weight leaves | pyraflufen-ethyl in Bound residues fraction ([5]; 24 h after treatment): 0.12 μg/g of fresh weight leaves | pyraflufen-ethyl in Ethanol-extracted fraction ([5]; 24 h after treatment): 1.59 μg/g of fresh weight leaves | pyraflufen-ethyl in Hexane-extracted fraction ([5]; 24 h after treatment): 0.94 μg/g of fresh weight leaves | pyraflufen-ethyl in Water-washable fraction ([5]; 24 h after treatment): 3.1 μg/g of fresh weight leaves

COC(=O)c1cccc(C)c1S(=O)(=O)NC(=O)Nc1nc(OCC(F)(F)F)nc(N(C)C)n1 [Triflusulfuron-methyl]
Herbicide activity (fresh weight reduction compared to untreated plants) (Lemna minor): 34

Diferulic acid
Desiccation (%) (potato plants [1]; application rate 12): 2% | effect in combination with the herbicides tested (synergistic / antagonist) (potato plants [1]): antagonist

— patent publication US20240423203A1, “Herbicidally Active Combination for Agricultural Applications” (priority 2021, published 2024)
